# Experimental data from the METLIN SMRT retention time set (Domingo-Almenara et al. 2019).
# Assay: gradient 5% acetonitrile 3 min, to 50% in 2 min, to 85% in 15 min, held 3 min, 100 µL/min
# Conditions: column: Zorbax Extend-C18 2.1 x 50 mm; eluents: water / acetonitrile, 0.1% formic acid
# In short: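 A Zorbax Extend-C18 column (2.1 × 50 mm, 1.8 μm) run at 100 μL/min with water and acetonitrile, both containing 0.1% formic acid, separated mixtures of ~100 pure standards. The HPLC was coupled to a quadrupole time-of-flight mass spectrometer operated in positive and negative ionization mode, with dead and dwell volumes of 40 μL and 900 μL. Each retention time was taken from a computationally picked adduct peak that was then manually inspected.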
row,RP-LC retention time,SMILES
1,1050 s,COC(=O)c1cccc(-c2nc(C3CC(=O)N(c4ccc(F)c(Cl)c4)C3)no2)c1 (centres undefined)
2,663 s,CC(C)CN1CCN(C(=O)c2cn(-c3cc(N4CCC(C)CC4)ncn3)cn2)CC1
3,619 s,CCCc1cc(N2CCN(C(=O)c3nccc4ccccc34)CC2)nc2nncn12
4,765 s,O=S(=O)(NCc1nc(-c2cccc(-c3ccn[nH]3)c2)no1)c1ccc(F)cc1
5,604 s,CC1CCN(c2nc(C(=O)N3CCN(C(C)C)CC3)nc3c2cnn3C)CC1
6,735 s,O=C1COc2cc(S(=O)(=O)N3CCC(C(=O)NC4CCCC4)CC3)c(Cl)cc2N1
7,967 s,CCOc1cc(C(=O)Nc2ccc(Cl)c(-c3nc4ccccc4[nH]3)c2)cc(OCC)c1OCC
8,743 s,CS(=O)(=O)N1CCC(CNC(=O)C(=O)Nc2cc(Cl)ccc2C#N)CC1
9,871 s,CCOC(=O)N1CCC2(CC1)N=C(c1ccc(Cl)cc1)CC(c1cccc(OCC)c1O)N2 (centres undefined)
10,951 s,O=S(=O)(c1ccccc1Cl)N1CC(c2nc(Cc3ccccc3)no2)C1
11,741 s,O=C(NC1CC1)c1ccc(OCC2CCCN2C(=O)C2CCC2)cc1 (centres undefined)
12,730 s,O=C(CCc1c(-c2ccc(F)cc2)nc2ccccn12)Nc1cccc(Br)c1
13,715 s,COc1ccc(-c2ncccc2CNS(=O)(=O)c2ccc(C)cc2C)cc1
14,1070 s,CC(C)Cn1c(=O)c(C(=O)NCc2ccccc2C(F)(F)F)nc2cccnc21
15,942 s,CC(=O)N1CCC(C(=O)NCc2ccccc2)(N(C(=O)c2ccc(C)cc2)C2CCCC2)CC1
16,1120 s,O=C(NCc1ccc(Br)cc1)C1CCCN(c2ncc(-c3ccc(F)cc3)cn2)C1 (centres undefined)
17,693 s,CC(C)Cn1c(=O)c2nscc2n(CC(=O)NC(C)C)c1=O
18,669 s,O=C(NCCn1nc(-n2cccn2)ccc1=O)c1cc2ccccc2o1
19,678 s,O=C(Nc1cccc(-c2nc3ncccc3o2)c1)[C@@H]1OCCN(C2CC2)[C@H]1c1ccccc1
20,649 s,NC(=O)C1CCN(S(=O)(=O)Cc2c(F)cccc2Cl)CC1
21,824 s,COc1ccc(-c2ccnc3nc(CC(C)C)nn23)cc1OC
22,657 s,COc1ccc(-c2nnc3n2CCN(Cc2scnc2C)C3)cc1
23,625 s,Cc1nc2ncnn2c(N2CCOCC2)c1C

row,RP-LC retention time,SMILES
1,612 s,O=C(Nc1ccccc1)N1CCN(Cc2nc(-c3ccccc3)cs2)CC1
2,754 s,COC(=O)c1c(C)[nH]c(C(=O)N2CCC(CC(=O)N3CCN(c4cccc(C)c4)C(C)C3)CC2)c1C (centres undefined)
3,647 s,CC12CC(NC(=O)N1c1cccc(C(=O)NCc3ccccn3)c1)c1cc(Cl)ccc1O2 (centres undefined)
4,1170 s,Cc1ccc(S(=O)(=O)N2CCc3nc(-c4ccc(F)cc4)ncc3C2)cc1C
5,626 s,Cn1c(CCNC(=O)c2ccc(Cl)s2)nc2cccnc21
6,790 s,CC(=O)Nc1nc2ccc(CC(=O)Nc3cccc(Cl)c3)cc2s1
7,509 s,c1ccc(-c2cn(CCC3CCCCN3)nn2)cc1 (centres undefined)
8,717 s,CCOC(=O)[C@H]1[C@H]2C=C[C@]3(CN(c4ccccc4C)C(=O)[C@@H]13)O2
9,755 s,CCC(=O)N1CCc2cc(N3CC(C(=O)NCc4ccc(F)cc4F)CC3=O)ccc21 (centres undefined)
10,1220 s,O=c1cc(-c2ccncc2)nc(N2CCCC2)n1Cc1ccccc1F
11,748 s,O=C(Cn1ccc2ccccc21)Nc1nccs1
12,766 s,CC(=O)N(Cc1nn(C)c2c1CN(S(=O)(=O)c1ccccc1)CC2)c1ccccc1
13,951 s,Cc1nc(-c2ccc3c(c2)CCN3C(=O)c2ccc3c(c2)OCO3)cs1
14,725 s,COCCCNC(=O)CN1c2ccccc2NC2=C(C(=O)CC(C)(C)C2)C1c1ccco1 (centres undefined)
15,796 s,CCOc1ccc(N2CC(c3nnc(NC(=O)Cc4ccc(Cl)cc4)o3)CC2=O)cc1 (centres undefined)
16,1210 s,CC1(C(=O)NCc2ccc(F)cc2)CCN(S(=O)(=O)c2ccc(C3CCCCC3)cc2)CC1
17,620 s,Oc1ccc(C2NCCc3c2[nH]c2ccc(Cl)cc32)cc1O (centres undefined)
18,576 s,CCN(CC)CCNC(=O)c1ccc(-c2nc(CCN(C)C(C)=O)no2)cc1
19,672 s,Cc1ccccc1CNC(=O)Cn1c(=O)c2nnc(C)n2c2ncccc21
20,720 s,Fc1cc(F)cc(CN2CCCN(c3ncccc3-c3nc(C4CC4)no3)CC2)c1
21,993 s,Cc1ccc(Cn2c(N3CCCC(C(=O)NCc4ccc(F)cc4)C3)nc3ccsc3c2=O)cc1 (centres undefined)
22,631 s,O=C(Nc1ccc(-c2nnc3n2CCCC3)cc1)c1ccsc1
23,659 s,Cc1cc(F)ccc1NC(=O)Cc1nnc(-c2cnccn2)o1

row,RP-LC retention time,SMILES
1,1080 s,Cc1ccc(-c2ncc3c(=O)n(CC(=O)NC4CCCCCC4)c(=O)n(C)c3n2)cc1
2,715 s,COc1ccc(-c2nc3cc(C)ccn3c2NC(=O)c2cc(Br)ccc2Cl)cc1
3,791 s,O=C(NCc1ccc(F)cc1)c1ccc2c(c1)Sc1ncccc1C(=O)N2C1CC1
4,953 s,Cc1ccc(NS(=O)(=O)c2cn(CC(C)C)c3ncccc23)cc1F
5,910 s,Cc1ccc(S(=O)(=O)N2C(=O)CCC2C(=O)NCc2nc(-c3cccc(C)c3)no2)cc1 (centres undefined)
6,613 s,O=C(c1ccc(=O)n(CCN2CCOCC2)c1)N1CCN(c2ccccc2F)CC1
7,561 s,COC(=O)c1ccc(CN2CCN(CCN3C(=O)C4C5C=CC(C5)C4C3=O)CC2)cc1 (centres undefined)
8,688 s,O=C(CSc1nccnc1Sc1ccccc1)N1CCN(c2ccccn2)CC1
9,1060 s,COC(=O)c1ccc(NC(=O)C2=Cc3ccccc3OC=C2)cc1
10,866 s,O=C(Nc1nnc(-c2cc(Cl)sc2Cl)o1)c1ccc([N+](=O)[O-])o1
11,585 s,COCc1cc(=O)n(CC(=O)Nc2ccc(F)cc2)c(N)n1
12,883 s,COc1ccccc1OCC(=O)Nc1ccc2c(c1)Sc1ncccc1C(=O)N2C(C)C
13,751 s,Nc1nnc(SCC(=O)Nc2nc(-c3ccccc3)cs2)s1
14,604 s,O=C(NCc1ccc(N2CCOCC2)cc1)c1cn2c(n1)CSCC2
15,832 s,O=C1COc2ccc(S(=O)(=O)N3CCC(C(=O)NCc4ccc(Cl)cc4)CC3)cc2N1
16,610 s,Cc1nc2cccnc2n1CCN1CCN(C(=O)Nc2ccc(Cl)cc2)CC1
17,638 s,CN(C)CCn1c2c(c(SCC(=O)Nc3ccc(F)c(F)c3)nc1=O)CCC2
18,906 s,O=c1ccn(-c2cccc(F)c2)nc1-c1nc(-c2cccc(F)c2)no1
19,682 s,Cc1[nH]c2ccccc2c1C(=O)C(c1ccccc1)N1CCN(c2ncccn2)CC1 (centres undefined)
20,793 s,CCc1cc(=O)n(CC(=O)NCc2ccc(F)cc2)c(N)n1
21,925 s,COc1ccc(CNC(=O)Nc2nnc(-c3ccc4c(c3)CCCC4)o2)cc1
22,539 s,Cc1cn2c(CCC(=O)NCCn3nc(-c4ccco4)ccc3=O)csc2n1
23,610 s,O=C(NCCCN1CCOCC1)C1CCCN(c2ccc(=O)n(-c3cccc(Cl)c3)n2)C1 (centres undefined)

row,RP-LC retention time,SMILES
1,1090 s,COc1ccc(-c2noc(COC(=O)C3=CN(Cc4ccccc4)S(=O)(=O)N=C3C)n2)cc1
2,779 s,CN1c2cc(F)ccc2C(=O)NC12CCN(C(=O)Cc1ccccc1)CC2
3,795 s,CCc1nnc(-c2ccc(NC(=O)CCc3ccc(OC)cc3)cc2)o1
4,570 s,CC(=O)Nc1nc2ccc(CC(=O)N3CCN(c4ccccn4)CC3)cc2s1
5,573 s,O=C(NCc1ccncc1)C1CC(=O)N(c2ccc3c(c2)CCN3C(=O)C2CC2)C1 (centres undefined)
6,954 s,CCc1nc(-c2ccc(S(=O)(=O)N3CCC(C(=O)NC4CCCCC4)CC3)cc2)no1
7,1010 s,COC(=O)CCNC(=O)C1c2ccccc2C(=O)N(C2CCCCC2)C12CCCCC2 (centres undefined)
8,747 s,Cc1cc(Nc2nc3ccncc3n(Cc3ccccc3)c2=O)ccc1Cl
9,767 s,COc1ccc(N2CCCS2(=O)=O)cc1NC(=O)c1ccc(Br)o1
10,630 s,COc1ccc(CSc2ncn[nH]2)cc1
11,844 s,Cc1ccsc1C(=O)N1CCC2(CC1)NC(=O)N(Cc1ccc(Cl)cc1)C2=O
12,660 s,COc1cc(NC(=O)NCC2(O)CCCC2)cc(OC)c1
13,641 s,Cc1nn(C)cc1S(=O)(=O)Nc1ccc2c(c1)OCCO2
14,1020 s,O=C(Nc1ccc(Cl)cc1F)c1cccn1Cc1noc(C2CC2)n1
15,657 s,CC(=O)Cc1nsc(NC(=O)c2cc(-c3cccc(C(F)(F)F)c3)oc2C)n1
16,659 s,CC(C)NC(=O)NC1CCN(c2ccc(F)cc2)C1=O (centres undefined)
17,1020 s,COc1ccc(-c2csc(NC(=O)CS(=O)(=O)c3ccc(Cl)cc3)n2)c(OC)c1
18,929 s,Cc1ccc(S(=O)(=O)/C=C/C#N)cc1
19,908 s,CCOC(=O)C1=C(C)NC2=C(C(=O)C(C(=O)OC)C(C)C2)C1c1cccc(OCC)c1 (centres undefined)
20,862 s,CC(C)NC(=O)N1CCCC(c2cccc(C(=O)NCCN3CCCC3)c2)C1 (centres undefined)
